A short description of data set [1]: magnetic relaxation rates (MRI contrast effect). To be noted: magnetic relaxation rate; field strength not stated for Table 1. The data set is classed as physicochemical. How it is done: In order to examine the MRI contrast effects of the compounds (Gd-suc, Gd-glu) and commercially available MRI contrast agents according to Examples of the present invention, the magnetic relaxation rates and lipophilicity were analyzed, and the results are shown in Table 1 below.
The magnetic relaxation rate (mM^−ls^−1) is a parameter indicating contrast efficiency per unit concentration, and in the case of a T1 contrast agent, the r2/r1 ratio is known to have a value of 0.5 to 1.5.

Data set [2] concerns AML12 cell line. As to the kind of experiment: in vitro cell-viability test (CCK method). Format: cell-based. Conditions: AML12 normal hepatocytes, 24 hours; FIG. 16. On the procedure: In order to confirm the presence or absence of cytotoxicity in normal hepatocytes, Gd-suc (i.e., a compound according to an embodiment of the present invention) and Primovist and Multihance (i.e., commercially available liver contrast agents) were treated on the AML12 cell line at various concentrations, and cell viability after 24 hours was analyzed by a known CCK method, and the results are shown in FIG. 16.

Data set [3] has as its system Balb/C mice. As to the kind of experiment: in vivo MRI contrast effect (abdominal T1 weighted images). Conditions: 0.1 mmol/kg, 4.7 T, FIG. 14. On the procedure: The liver-specific T1 contrast effect of the compounds (Gd-suc, Gd-glu) according to embodiments of the present invention and Primovist, a commercially available liver contrast agent, was evaluated in small animals (Balb/C mice, male, 5 w, 25 g, 0.1 mmol/kg) and confirmed through abdominal T1 weighted images (Bruker, 4.7 T), and the results are shown in FIGS. 12 to 15.

For `O=C([O-])CN1CCN(CC(=O)[O-])CCN([C@H](CO)[C@H](O)CO)CCN(CC(=O)[O-])CC1.[Gd+3]` (racemic) [Gadovist], in data set [1], the r1 is on record as 4.12 ± 0.028 mM^−ls^−1 and the r2 turned out to be 4.60 ± 0.025 mM^−ls^−1.

In data set [1], `CCOc1ccc(CC(CN(CCN(CC(=O)[O-])CC(=O)[O-])CC(=O)[O-])N(CC(=O)[O-])CC(=O)[O-])cc1.[Gd+3].[Na+].[Na+]` (stereo not shown) [Primovist] had a r1 of 6.51 ± 0.040 mM^−ls^−1 and a r2 of 7.31 ± 0.42 mM^−ls^−1. The cytotoxicity entry in data set [2] is “significant cytotoxicity”.

In data set [1], `CC(O)CN1CCN(CC(=O)[O-])CCN(CC(=O)[O-])CCN(CC(=O)[O-])CC1.[Gd+3]` (stereo not shown) [Prohance] registered a r1 of 3.58 ± 0.017 mM^−ls^−1 and a r2 of 4.58 ± 0.071 mM^−ls^−1.

Turning to `CNC[C@H](O)[C@@H](O)[C@H](O)[C@H](O)CO.CNC[C@H](O)[C@@H](O)[C@H](O)[C@H](O)CO.O=C([O-])CN(CCN(CC(=O)[O-])CC(=O)O)CCN(CC(=O)[O-])CC(=O)O.[Gd+3]` [Magnevist], in data set [1], the r1 came out at 3.57 ± 0.007 mM^−ls^−1 and the r2 was 4.95 ± 0.18 mM^−ls^−1.

In data set [1], `CNC(=O)CN(CCN(CCN(CC(=O)[O-])CC(=O)NC)CC(=O)[O-])CC(=O)[O-].[Gd+3]` [Omniscan] yielded a r1 of 3.58 ± 0.014 mM^−ls^−1 and a r2 of 4.46 ± 0.024 mM^−ls^−1.

In data set [1], `CNC[C@H](O)[C@@H](O)[C@H](O)[C@H](O)CO.CNC[C@H](O)[C@@H](O)[C@H](O)[C@H](O)CO.O=C([O-])CN(CCN(CC(=O)[O-])CC(=O)O)CCN(CC(=O)O)C(COCc1ccccc1)C(=O)[O-].[Gd+3]` (stereo not shown) [Multihance] yielded a r1 of 5.09 ± 0.015 mM^−ls^−1 and a r2 of 6.79 ± 0.38 mM^−ls^−1. The cytotoxicity entry in data set [2] is “significant cytotoxicity”.

Turning to `CCOc1ccc(CN2CCN(CC(=O)[O-])CCN(C(CCC(=O)[O-])C(=O)[O-])CCN(CC(=O)[O-])CC2)cc1.[Gd+3]` (stereo not shown) [Gd-glu], in data set [1], the r1 stood at 8.41 ± 0.084 mM^−ls^−1 and the r2 is 9.92 ± 0.081 mM^−ls^−1. Moreover, in data set [3], the “contrast enhancing effect in the gall bladder” value is given as “exhibited a contrast enhancing effect in the gall bladder”.

For the compound `CNC[C@H](O)[C@@H](O)[C@H](O)[C@H](O)CO.O=C([O-])CN1CCN(CC(=O)[O-])CCN(CC(=O)O)CCN(CC(=O)[O-])CC1.[Gd+3]` [Dotarem, Gd-DOTA], in data set [1], the r1 was determined as 4.19 ± 0.014 mM^−ls^−1 and the r2 is 4.75 ± 0.016 mM^−ls^−1.

The values above are taken from patent publication US12589169B2, “Compound and MRI contrast agent containing same” (KYUNGPOOK NATIONAL UNIVERSITY INDUSTRY-ACADEMIC COOPERATION …, priority 2020, dated 2026).
